Measurements as given in patent US20150344444A1, “BET-PROTEIN-INHIBITING DIHYDROXYQUINOXALINONES” (BAYER PHARMA AKTIENGESELLSCHAFT, priority 2012, published 2015).

Columns and labels:
[1] = molecular target: T1, BRD4 Bromo Domain 1 [BRD4(1)] (Homo sapiens, UniProt O60885); assay: BRD4(1)/acetylated peptide H4 binding assay (TR-FRET); details: inhibition of interaction between His6-tagged BRD4(1) (amino acids 67-152) and acetylated histone H4 peptide
T1 construct: N-terminally His6-tagged BRD4(1) (amino acids 67-152); made in house; host or cells: E. coli
From the text: Protein-Protein Interaction Assay: BRD4/Acetylated Peptide H4 Binding Assay
1. Assay Description for BRD4 Bromo Domain 1 [BRD4(1)]
To assess the BRD4(1) binding strength of the substances described in this application, the ability thereof to inhibit the interaction between BRD4(1) and acetylated histone H4 in a dose-dependent manner was quantified.
For this purpose, a time-resolved fluorescence resonance energy transfer (TR-FRET) assay was used, which measures the binding between N-terminally His6-tagged BRD4(1) (amino acids 67-152) and a synthetic acetylated histone H4 (Ac-H4) peptide with sequence GRGK(Ac)GGK(Ac)GLGK(Ac)GGAK(Ac)RHGSGSK-biotin. The recombinant BRD4(1) protein produced in house according to Filippakopoulos et al., Cell, 2012, 149:214-231 was expressed in E. coli and purified by means of (Ni-NTA) affinity and (Sephadex G-75) size exclusion chromatography. The Ac-H4 peptide can be purchased, for example, from Biosyntan (Berlin, Germany).
In the assay, typically 11 different concentrations of each substance (0.1 nM, 0.33 nM, 1.1 nM, 3.8 nM, 13 nM, 44 nM, 0.15 μM, 0.51 μM, 1.7 μM, 5.9 μM and 20 μM) were analysed as duplicates on the same microtitre plate. For this purpose, 100-fold concentrated solutions in DMSO were prepared by serial dilutions (1:3.4) of a 2 mM stock solution into a clear, 384-well microtitre plate (Greiner Bio-One, Frickenhausen, Germany). From this, 50 nl were transferred into a black test plate (Greiner Bio-One, Frickenhausen, Germany). The test was started by the addition of 2 μl of a 2.5-fold concentrated BRD4(1) solution (final concentration typically 10 nM in the 5 μl of reaction volume) in aqueous assay buffer [50 mM HEPES pH 7.5, 50 mM sodium chloride (NaCl), 0.25 mM CHAPS and 0.05% serum albumin (BSA)] to the substances in the test plate. This was followed by a 10-minute incubation step at 22° C. for the pre-equilibration of putative complexes between BRD4(1) and the substances.
The mixture was then incubated in the dark at 22° C. for one hour and then at 4° C. for at least 3 hours and for no longer than overnight. The formation of BRD4(1)/Ac-H4 complexes was determined by the measurement of the resonance energy transfer from the streptavidin-Eu cryptate to the anti-6His-XL665 antibody present in the reaction. For this purpose, the fluorescence emission was measured at 620 nm and 665 nm after excitation at 330-350 nm in a TR-FRET measuring instrument, for example a Rubystar or Pherastar (both from BMG Lab Technologies, Offenburg, Germany) or a Viewlux (Perkin-Elmer). The ratio of the emissions at 665 nm and at 622 nm was taken as an indicator of the amount of BRD4(1)/Ac-H4 complexes formed.
The data (ratios) obtained were normalized, with 0% inhibition corresponding to the mean from the measurements for a set of controls (typically 32 data points) in which all the reagents were present. In these, in place of test substances, 50 nl of DMSO (100%) were used Inhibition of 100% corresponded to the mean from the measurements for a set of controls (typically 32 data points) in which all the reagents except BRD4(1) were present. The IC50 was determined by regression analysis based on a 4-parameter equation (minimum, maximum, IC50, Hill; Y=max+(min−max)/(1+(X/IC50)Hill).

[2] = tested on: B16F10 cells; assay: B16F10 cell proliferation assay (alamarBlue); type: cell-based; details: B16-F10; inhibition of cell proliferation, 96 hours, mouse melanoma cell line
Experimental: In accordance with the invention, the ability of the substances to inhibit cell proliferation was determined Cell viability was determined by means of the alamarBlue® reagent (Invitrogen) in a Victor X3 Multilabel Reader (Perkin Elmer). The excitation wavelength was 530 nm and the emission wavelength […].
The B16F10 cells (ATCC, CRL-6475) were sown at a concentration of 300-500 cells/well in 100 μl of growth medium (DMEM with phenol red, 10% FCS) on 96-well microtitre plates.
After overnight incubation at 37° C., the fluorescence values were determined (CI values). Then the plates were treated with various substance dilutions (1E-5 M, 3E-6 M, 1E-6 M, 3E-7 M, 1E-7 M, 3E-8 M, 1E-8 M) and incubated at 37° C. over 96 hours (MOLM-13, B16F10 cells) or 120 hours (MOLP-8 cells). Subsequently, the fluorescence values were determined (CO values). For the data analysis, the CI values were subtracted from the CO values and the results were compared between cells which had been treated with various dilutions of the substance or only with buffer solution. The IC50 values (substance concentration needed for 50% inhibition of cell proliferation) were calculated therefrom.
B16F10 mouse melanoma cell line

| SMILES | IC50 [1] | IC50 [2] |
| --- | --- | --- |
| COc1ccc(CN2c3cc(Nc4ccc(C(=O)N5CCOCC5)cc4)ccc3N(C)C(=O)[C@H]2C)cc1 [Example 18, (3R)-4-(4-methoxybenzyl)-1,3-dimethyl-6-{[4-(morpholin-4-ylcarbonyl)phenyl]amino}-3,4-dihydroquinoxalin-2(1H)-one] | 190 nM | 287 nM |
| C[C@@H]1C(=O)N(C)c2ccc(Nc3ccc(S(=O)(=O)N4CCOCC4)cc3)cc2N1C1CCOCC1 [Example 47, (3R)-1,3-dimethyl-6-{[4-(morpholin-4-ylsulphonyl)phenyl]amino}-4-(tetrahydro-2H-pyran-4-yl)-3,4-dihydroquinoxalin-2(1H)-one] | 95 nM | 423 nM |
| C[C@@H]1C(=O)N(C)c2ccc(Nc3ccc(S(=O)(=O)N(C)C)cc3)cc2N1C1CCCCCC1 [Example 45, 4-{[(3R)-4-cycloheptyl-1,3-dimethyl-2-oxo-1,2,3,4-tetrahydroquinoxalin-6-yl]amino}-N,N-dimethylbenzenesulphonamide] | 264 nM | 1570 nM |
| C[C@@H]1C(=O)N(C)c2ccc(Nc3ccc(S(=O)(=O)N4CCN(C)CC4)cc3)cc2N1C1CCOCC1 [Example 48, (3R)-1,3-dimethyl-6-({4-[(4-methylpiperazin-1-yl)sulphonyl]phenyl}amino)-4-(tetrahydro-2H-pyran-4-yl)-3,4-dihydroquinoxalin-2(1H)-one] | 237 nM | 1450 nM |
| C[C@@H]1C(=O)N(C)c2ccc(Nc3ccc(C(=O)NC4CCN(C)CC4)cc3)cc2N1Cc1ccccc1 [Example 11, 4-{[(3R)-4-benzyl-1,3-dimethyl-2-oxo-1,2,3,4-tetrahydroquinoxalin-6-yl]amino}-N-(1-methylpiperidin-4-yl)benzamide] | 239 nM | 768 nM |
| COc1cc(C(=O)NC2CCN(C)CC2)ccc1Nc1ccc2c(c1)N(C1CCOCC1)[C@H](C)C(=O)N2C [Example 36, 4-{[(3R)-1,3-dimethyl-2-oxo-4-(tetrahydro-2H-pyran-4-yl)-1,2,3,4-tetrahydroquinoxalin-6-yl]amino}-3-methoxy-N-(1-methylpiperidin-4-yl)benzamide] | 482 nM | 2090 nM |
| C[C@@H]1C(=O)N(C)c2ccc(Nc3ccc(C(=O)NC4CCN(C)CC4)cc3)cc2N1C1CCOCC1 [Example 26, 4-{[(3R)-1,3-dimethyl-2-oxo-4-(tetrahydro-2H-pyran-4-yl)-1,2,3,4-tetrahydroquinoxalin-6-yl]amino}-N-(1-methylpiperidin-4-yl)benzamide] | 374 nM | 4010 nM |
| COc1ccc(CN2c3cc(Nc4ccc(C(=O)NC5CCN(C)CC5)cc4)ccc3N(C)C(=O)[C@H]2C)cc1 [Example 17, 4-{[(3R)-4-(4-methoxybenzyl)-1,3-dimethyl-2-oxo-1,2,3,4-tetrahydroquinoxalin-6-yl]amino}-N-(1-methylpiperidin-4-yl)benzamide] | 114 nM | 378 nM |
| C[C@@H]1C(=O)N(C)c2ccc(Nc3ccc(S(=O)(=O)N(C)C)cc3)cc2N1C1CCOCC1 [Example 46, 4-{[(3R)-1,3-dimethyl-2-oxo-4-(tetrahydro-2H-pyran-4-yl)-1,2,3,4-tetrahydroquinoxalin-6-yl]amino}-N,N-dimethylbenzenesulphonamide] | 145 nM | 600 nM |
| C[C@@H]1C(=O)N(C)c2ccc(Nc3ccc(C(=O)NCC4COC4)cc3)cc2N1C1CCOCC1 [Example 28, 4-{[(3R)-1,3-dimethyl-2-oxo-4-(tetrahydro-2H-pyran-4-yl)-1,2,3,4-tetrahydroquinoxalin-6-yl]amino}-N-(oxetan-3-ylmethyl)benzamide] | 366 nM | 2830 nM |
| CC(C)NC(=O)c1ccc(Nc2ccc3c(c2)N(C2CCCC2)[C@H](C)C(=O)N3C)cc1 [Example 7, 4-{[(3R)-4-cyclopentyl-1,3-dimethyl-2-oxo-1,2,3,4-tetrahydroquinoxalin-6-yl]amino}-N-isopropylbenzamide] | 167 nM | 1020 nM |
| COc1cc(C(=O)N2CCN(C)CC2)ccc1Nc1ccc2c(c1)N(C1CCOCC1)[C@H](C)C(=O)N2C [Example 38, (3R)-6-({2-methoxy-4-[(4-methylpiperazin-1-yl)carbonyl]phenyl}amino)-1,3-dimethyl-4-(tetrahydro-2H-pyran-4-yl)-3,4-dihydroquinoxalin-2(1H)-one] | 272 nM | 1780 nM |
| C[C@@H]1C(=O)N(C)c2ccc(Nc3ccc(C(=O)NCC4COC4)cc3)cc2N1Cc1ccccc1 [Example 9, 4-{[(3R)-4-benzyl-1,3-dimethyl-2-oxo-1,2,3,4-tetrahydroquinoxalin-6-yl]amino}-N-(oxetan-3-ylmethyl)benzamide] | 249 nM | 365 nM |
| C[C@@H]1C(=O)N(C)c2ccc(Nc3ccc(S(=O)(=O)N(C)C)cc3)cc2N1C1CCCC1 [Example 3, 4-{[(3R)-4-cyclopentyl-1,3-dimethyl-2-oxo-1,2,3,4-tetrahydroquinoxalin-6-yl]amino}-N,N-dimethylbenzenesulphonamide] | 63 nM | 327 nM |
| C[C@@H]1C(=O)N(C)c2ccc(Nc3ccc(C(=O)NC4CCN(C)CC4)cc3)cc2N1C1CCCCCC1 [Example 23, 4-{[(3R)-4-cycloheptyl-1,3-dimethyl-2-oxo-1,2,3,4-tetrahydroquinoxalin-6-yl]amino}-N-(1-methylpiperidin-4-yl)benzamide] | 176 nM | 1960 nM |
| C[C@@H]1C(=O)N(C)c2ccc(Nc3ccc(C(=O)NC4CCC(N5CCN(CC6CC6)CC5)CC4)cc3)cc2N1Cc1c(F)cccc1F (stereo in doubt) [Example 40, N-{4-[4-(cyclopropylmethyl)piperazin-1-yl]cyclohexyl}-4-{[4-(2,6-difluorobenzyl)-1,3-dimethyl-2-oxo-1,2,3,4-tetrahydroquinoxalin-6-yl]amino}benzamide] | 1280 nM | 4980 nM |
| C[C@@H]1C(=O)N(C)c2ccc(Nc3ccc(C(=O)N4CCOCC4)cc3)cc2N1C1CCOCC1 [Example 27, (3R)-1,3-dimethyl-6-{[4-(morpholin-4-ylcarbonyl)phenyl]amino}-4-(tetrahydro-2H-pyran-4-yl)-3,4-dihydroquinoxalin-2(1H)-one] | 230 nM | 2490 nM |
| COc1ccc(CN2c3cc(Nc4ccc(S(=O)(=O)N5CCN(C(C)C)CC5)cc4)ccc3N(C)C(=O)[C@H]2C)cc1 [Example 44, (3R)-4-(4-methoxybenzyl)-1,3-dimethyl-6-[(4-{[4-(propan-2-yl)piperazin-1-yl]sulphonyl}phenyl)amino]-3,4-dihydroquinoxalin-2(1H)-one] | 55 nM | 460 nM |
